One experiment deals with T1, PTGDR2 (Homo sapiens, UniProt Q9Y5Y4).
T1 construct: purchased Promega (in-house HiBiT-GPCR construct library, NanoBRET)
T1 sequence (Q9Y5Y4 1-395): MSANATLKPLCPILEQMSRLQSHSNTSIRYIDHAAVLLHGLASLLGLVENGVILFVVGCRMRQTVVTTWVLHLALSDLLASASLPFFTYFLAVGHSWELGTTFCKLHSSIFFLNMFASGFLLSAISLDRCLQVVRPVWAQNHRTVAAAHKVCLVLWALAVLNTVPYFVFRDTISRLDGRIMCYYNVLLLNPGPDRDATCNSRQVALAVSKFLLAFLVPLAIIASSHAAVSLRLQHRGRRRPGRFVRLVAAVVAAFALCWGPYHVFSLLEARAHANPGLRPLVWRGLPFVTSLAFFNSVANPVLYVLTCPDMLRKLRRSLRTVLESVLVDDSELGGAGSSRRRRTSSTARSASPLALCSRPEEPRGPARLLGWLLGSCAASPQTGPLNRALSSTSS
Description: NanoBRET screen HiBiT-PTGDR2 in HEK293. It counts as binding. Particulars: PTGDR2. How it is done:
(§1) Each tracer candidate was screened across the entire library of HiBiT-GPCR constructs using NanoBRET as the detection modality. As depicted in Figure 4A, the specificity of interactions was evaluated through decrease in BRET due to competitive displacement of a bound tracer by excess parental compound. Each tracer was analyzed for binding to each HiBiT-GPCR fusion in the absence and in the presence of competing parental compound. Briefly, HEK293 cells were transfected with HiBiT-GPCR constructs diluted into promoterless DNA to reduce expression and maximize translocation to the cell surface. Each tracer candidate was then screened at concentrations of 1 μM and 0.1 μM across cells expressing these fusions. Cells were treated for 1.5 h with tracer either alone or in the presence of 20 μM competing parental compound (i.e., control). BRET was measured upon addition of purified LgBiT and subsequent complementation with HiBiT genetically fused to a GPCR. The specificity of interactions was assessed through a decrease in BRET signal due to competitive displacement of the bound tracer. To further gauge the robustness of these interactions, the fold response over the control (i.e., BRETtracer/BRETcontrol) was calculated. We chose a 1.5-fold response, which translates to ≥7-fold signal over noise as the minimal threshold required to score an interaction as positive. […]. Below we highlight the screening results obtained for our exemplary fluorescent tracers based on Clozapine, Amitriptyline and AZD1283.
(§2) HiBiT-GPCR DNA constructs were diluted in 10 mM Tris pH 8 to a final concentration of 0.01 μg/μL, arrayed in 96-well plates and stored at −20 °C. For transfection, HEK293 cells were suspended in Opti-MEM (without phenol red) supplemented with 2% fetal bovine serum (Seradigm) and 100 units/mL penicillin–streptomycin (Gibco) at a final concentration of 220,000 cells/mL and dispensed into white 96-well plates at 90 μL/well. Subsequent transfections and screens were carried using an Agilent Bravo Automated Liquid Handling Platform. First, the 96-well HiBiT DNA arrays were diluted 25-fold in Opti-MEM (without serum or phenol red) to a final concentration of 0.0004 μg/μL and 20 μL of the diluted DNAs were transferred into new 96-well plates. Next, promoterless carrier DNA (1 μg/μL) was diluted 25-fold (0.04 μg/μL) and then dispensed into the diluted arrays at 20 μL/well. Following brief mixing, Viafect transfection reagent (Promega) diluted 16-fold into Opti-MEM was dispensed into the plates at 40 μL/well. After mixing by pipetting, plates were incubated for 10 min on the pipetting station deck. The DNA-transfection reagent complexes were then added to plates containing cells. To facilitate the screen, 10 μL of DNA-transfection reagent complexes were added in duplicates to the top 4 and bottom 4 rows, resulting in two identical 48-well arrays per plate. Plates with transfected cells were incubated for 18–20 h at 37 °C/5% CO2. A screen of each tracer across the entire library using two different concentrations requires duplicate plates of transfected cells. Depending on the number of tracers being screened, transfections can be scaled up using the same ratios. The next day, for each tracer, four 20× screening solutions in tracer dilution buffer (Promega) were prepared: two duplicates at final concentration of 20 μM and two duplicates at a final concentration of 2 μM. A competing unmodified compound was added to one of each duplicate at a final concentration of 400 μM. The four resulting solutions were diluted 4-fold in Opti-MEM without serum or phenol red to generate 5× solutions (5 µM and 0.5 µM tracer +/− 100 μM competing compound). To screen the library, a BioTek MultiFlo FX liquid dispenser was used to dispense 22.5 µL of tracer solution to the top 4 rows and 22.5 µL tracer + competing compound solution to the 4 bottom rows. Plates were briefly mixed on an orbital shaker and incubated for 1.5 h at room temperature. […]
For orientation: Bioluminescence resonance energy transfer reports proximity on the nanometre scale.

The target of the next experiment is T2, PTGDR (Homo sapiens, UniProt Q13258).
T2 construct: purchased Promega (in-house HiBiT-GPCR construct library, NanoBRET)
T2 sequence (Q13258 1-359): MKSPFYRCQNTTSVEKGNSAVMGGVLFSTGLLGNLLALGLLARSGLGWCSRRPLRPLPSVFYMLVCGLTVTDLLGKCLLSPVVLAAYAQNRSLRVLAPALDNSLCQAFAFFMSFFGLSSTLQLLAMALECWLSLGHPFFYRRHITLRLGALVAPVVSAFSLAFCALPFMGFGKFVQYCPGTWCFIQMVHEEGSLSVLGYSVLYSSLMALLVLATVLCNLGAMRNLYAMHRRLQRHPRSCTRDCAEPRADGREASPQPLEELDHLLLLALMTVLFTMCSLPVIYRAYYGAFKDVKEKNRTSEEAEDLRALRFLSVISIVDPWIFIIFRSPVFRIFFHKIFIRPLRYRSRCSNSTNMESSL
Put plainly: NanoBRET screen HiBiT-PTGDR in HEK293. The format is binding. Particulars: PTGDR. How it is done:
as §1, §2

With `COc1ccccc1N1CCN(CCCCN2C(=O)c3ccc(CNC(=O)CCOCCOCCOCCOCCNC(=O)CCc4ccc5n4[B-](F)(F)[N+]4=C(c6ccc[nH]6)C=CC4=C5)cc3C2=O)CC1` [NAN-190-2-NB590], the “NanoBRET Fold Response” value at PTGDR2 (tracer 1μM) stood at 1.02; at PTGDR (tracer 0.1μM), 0.97; at PTGDR (tracer 1μM), 1.01.
Regarding `O=C(CCOCCOCCOCCOCCNC(=O)CCc1ccc2n1[B-](F)(F)[N+]1=C(c3ccc[nH]3)C=CC1=C2)NCCCN1CCN(C2=Nc3ccccc3Oc3ccc(Cl)cc32)CC1` [Loxapine-a-2-NB590], the “NanoBRET Fold Response” value at PTGDR2 (tracer 0.1μM) amounted to 1.06; at PTGDR2 (tracer 1μM) it was 1.04; on PTGDR (tracer 0.1μM) it was 0.93; on PTGDR (tracer 1μM), 0.98.
For `CCCn1c(=O)c2[nH]c(-c3ccc(OCC(=O)NCCNC(=O)CCOCCNC(=O)c4ccc(CNC(=O)CCc5ccc6n5[B-](F)(F)[N+]5=C(c7ccc[nH]7)C=CC5=C6)cc4)cc3)nc2n(CCC)c1=O` [XAC-3-NB590] the same measures were 1.00, 1.06, 1.02 and 1.06.
As to `CCOC(=O)c1cc(C#N)c(N2CCC(C(=O)NS(=O)(=O)Cc3ccccc3/C=C/C(=O)NCCNC(=O)CCc3ccc4n3[B-](F)(F)[N+]3=C(c5ccc[nH]5)C=CC3=C4)CC2)nc1C` [AZD1283-1-NB590], the “NanoBRET Fold Response” value on PTGDR2 (0.1μM) is given as 1.07; on PTGDR2 (1μM), 1.03; at PTGDR (0.1μM), 1.42; on PTGDR (1μM), 1.19.

(Values after publication PMC8151276, “An Integrated Approach toward NanoBRET Tracers for Analysis of GPCR Ligand Engagement” (Molecules, 2021).)
